Experiments:
Assay type in all cases: cell-based, human
[1] = tested on: cellular retinoic acid binding protein 2 (CRABP2); assay: CRABP2 gene expression (TaqMan qPCR) in EpiDerm Full Thickness skin equivalents; details: EFT-400 skin equivalents, 4 μL topical, 24 hours, normalized to POLR2A, vs PgETOH vehicle
Experimental: (§1) EpiDerm Full Thickness Skin 3D Equivalents (EFT-400) were purchased from MatTek Corporation (Ashland, MA 01721; lot number 34272, kit N & kit P). Upon receipt the skin equivalents were transferred in new 6-well plates (MatTek Corporation, Ashland, MA 01721) with 2.5 mL of EFT-400 medium (MatTek Corportion, Ashland, MA) and equilibrated overnight.
(§2) The following day, skin equivalents were treated topically with 4 μL of the following treatments: Vehicle, 0.04% Retinol, 0.04% Retinol +0.05% Myrrh resin extract, or 0.04% Retinol +0.1% Myrrh resin extract.
(§3) Propylene glycol/ethanol (PgETOH) (3:7) (w/w) was used as a vehicle. Retinol (BASF 50C) was diluted in PgETOH to a stock concentration of 0.4%. 0.4% Retinol was further diluted to make 0.08% Retinol. Since Retinol is 50% active, the percent active Retinol in the final treatment solution was 0.04% Retinol. Myrrh resin extract (Firmenich) was weighed out to 16.1 mg and diluted in 1.6 mL of PgETOH for a 1% Myrrh resin extract stock solution.
(§4) To make the 0.04% Retinol+0.1% Myrrh resin extract treatment solution combine 100 μL of the 0.4% retinol stock solution, 50 μL of the 1% Myrrh resin extract stock solution, and 350 μL of PgETOH. […]
(§5) The fold changes were calculated in comparison to the vehicle control and two-tailed two-sample Student t-tests (Microsoft Office Excel 2007; Microsoft, Redmond, WA, USA) were performed. […]

aquaporin-3 (AQP3) = assay: AQP3 gene expression (TaqMan qPCR) in EpiDerm Full Thickness skin equivalents; details: EFT-400 skin equivalents, 4 μL topical, 24 hours, normalized to POLR2A, vs PgETOH vehicle
Experimental: as §1, §2, §3, §4, §5

interleukin-8 (IL8) = assay: IL8 gene expression (TaqMan qPCR) in EpiDerm Full Thickness skin equivalents; details: EFT-400 skin equivalents, 4 μL topical, 24 hours, normalized to POLR2A, vs PgETOH vehicle; irritation marker
Experimental: as §1, §2, §3, §4, §5

Structure (SMILES): CC1=C(/C=C/C(C)=C/C=C/C(C)=C/CO)C(C)(C)CCC1 [Sample 2, Retinol]
- CRABP2 Average fold change over untreated [1]: 2.22
- AQP3 Average fold change over untreated (aquaporin-3 (AQP3)): 1.82
- IL8 Average fold change over untreated (interleukin-8 (IL8)): 1.22
